# US7186559B2, “Apparatus and method for electroporation of biological samples” (Maxcyte, Inc., priority 2001, dated 2007)
# Tests used:
# [1] = test system: platelets; experiment: Collagen stimulation of calcein-loaded platelets; type: cell-based; settings: platelets electroporated with calcein, collagen stimulus
# Procedure: Platelets were treated in accordance with the present invention in the presence of a marker dye, calcein, then stimulated with increasing doses of collagen, a physiologic stimulant for platelets. […] FIGS. 24A and 24B show platelets that had been washed but otherwise not treated (Untreated[N]}), platelets that were incubated with the fluorescent marker calcein (calcein control) and platelets electroporated with calcein (electroporated) were subsequently stimulated with the physiologic stimulus, collagen.
# [2] = test system: Human platelets; experiment: Activity (secretion or aggregation) of loaded platelets; type: cell-based
# Procedure: Efficacy is expressed as the percentage of cells that took up fluorescent markers (calcein or albumin+fluorescein). “Activity” was determined by measuring biologic functions, such as secretion or aggregation (for MaxCyte's application, any detectable level will probably suffice). “Survival” is the circulating half-life in an animal model.
# [3] = Organ distribution of calcein-loaded platelets; type: in vivo, rabbit; settings: rabbits, organs harvested within 1 half-life
# Source text: In another series of studies, platelets loaded with calcein were infused into the rabbits and major organs harvested within 1 half-life.
# [4] = test system: Human platelets; experiment: Loading of platelets with fluorescent marker by flow electroporation; type: cell-based
# Procedure: Efficacy is expressed as the percentage of cells that took up fluorescent markers (calcein or albumin+fluorescein). “Activity” was determined by measuring biologic functions, such as secretion or aggregation (for MaxCyte's application, any detectable level will probably suffice). “Survival” is the circulating half-life in an animal model. FIGS. 23A and 23B show scatter plots from a flow cytometer. Control (FIG. 23A) was incubated in a dilute solution of the fluorescent dye, calcein, for approximately 1 hour. The test sample (FIG. 23B) was suspended in the same dye solution, but was run through the electroporation device. Similar results were obtained using fluoresceinated albumin.
# [5] = test system: CLL-B cells; experiment: Caspase inhibitor effect on human CD40L transfection of CLL-B cells; type: cell-based; settings: 100 μm inhibitor in culture medium, 24 hour post transfection
# Procedure: Caspase inhibitor effect on human CD40L transfection of CLL-B cells was investigated. CLL-B cells (1.4×10^8 cells/mL) were electroporated by four 400 μs pulses at indicated electric fields in the present of DNA plasmid (200 μg/mL) coding for hCD40L. Following a 20 minute incubation at 37° C., cells were cultured in medium either with (+I) or without (−I) caspase inhibitor (Boc-Asp-FMK, 100 μm). hCD40L, expression was analyzed 24 hour post transfection by flow cytometry with antibodies against hCD40L conjugate-labeled with Cychrome.
# [6] = test system: resting Lymphocytes; experiment: Electroporation (transfection) of resting lymphocytes; type: cell-based, human; settings: Static
# Procedure: Primary lymphocytes were suspended in B&K buffer (125 mM KCl, 15 mM NaCl, 1.2 mM MgCl2, 3 mM glucose, 25 mM Hepes, pH 7.4) cell concentration was set from 1×10^7 cells/mL to 6×10^8 cells/mL together with DNA plasmid from 50 μg/mL to 1 mg/mL. DNA concentration was 50 ug/mL–1000 ug/mL. Electroporation was performed at 2.3 kV/cm, 400 μs, 4 pulses for small volume experiments (15 μl) or 2.2 kV/cm, 1.6 ms, 1 pulse for large volume experiments (0.5 ml–2 ml) was performed under static conditions at room temperature. […] Cells were cultured in culture medium for various periods (up to 72 hours) and the transfection efficiency was analyzed.
# Seven transgenes (Ds-Red, eGFP, βGal, hEndostatin, HEPO, hIFNα, hIL-2) were tested in these experiments. […] When pCMV-Ds-Red or pCMV-EGFP was used, the percentage of the fluorescent cells was counted, by FACS or by manual counting under phase contrast and fluorescence microscope, as the transfection efficiency. […] When pCMV-Endostatin was used, the Endostatin concentration in the supernatant was analyzed by ELISA kit from Cytimmune Sciences, Inc. (College Park, Md.). For pCMV-EPO electroporation, the erythropoietin concentration in the supernatant was analyzed by R&D ELISA kit (Minneapolis, Minn.). […]
# [7] = molecular target: hemoglobin (Homo sapiens, UniProt P68871); settings: cited from earlier work
# hemoglobin, sequence (P68871 2-147 limits assumed): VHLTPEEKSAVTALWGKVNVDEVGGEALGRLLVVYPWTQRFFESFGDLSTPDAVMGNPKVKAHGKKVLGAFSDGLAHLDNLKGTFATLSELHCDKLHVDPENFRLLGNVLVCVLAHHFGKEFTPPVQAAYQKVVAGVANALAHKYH
# hemoglobin, sequence (P69905 2-142 partner limits assumed): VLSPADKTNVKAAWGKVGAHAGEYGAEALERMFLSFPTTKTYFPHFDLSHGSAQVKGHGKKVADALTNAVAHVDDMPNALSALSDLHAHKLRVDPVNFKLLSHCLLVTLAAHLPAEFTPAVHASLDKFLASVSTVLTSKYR
compound,measurement,setting,value
"O=C(O)CN(CC(=O)O)Cc1cc2c(cc1O)Oc1cc(O)c(CN(CC(=O)O)CC(=O)O)cc1C21OC(=O)c2ccccc21 [CALCEIN, calcein]",collagen-stimulated Calcein release,[1],did not release the dye
same,Activity (% of control),[2],40–60 % of control
same,organ distribution of loaded platelets,[3],found in multiple organs
same,Efficacy (% of cells with marker),[4],80+ % of cells with marker
CC(C)(C)OC(=O)NC(CC(=O)O)C(=O)CF (stereo not drawn) [Boc-Asp-FMK],hCD40L expression level,[5],improves
same,hCD40L expression: percentage of expressed cells,[5],improves
βGal,Efficiency (% of + cells),[6],15%
same,Viability,[6],40%
"O=P(O)(O)O[C@H]1[C@H](OP(=O)(O)O)[C@@H](OP(=O)(O)O)[C@H](OP(=O)(O)O)[C@@H](OP(=O)(O)O)[C@H]1OP(=O)(O)O [IHP, inositol hexaphosphate]",affinity to hemoglobin relative to DPG,[7]; higher than DPG,1000 fold
same,P50 of hemoglobin,"[7]; pH 7.4, 37° C.",≤ 96.4 mm Hg
